Results on six molecules are retold here after patent publication US7408048B2, “Mammalian grainyhead transcription factors” (Melbourne Health, priority 2002, dated 2008).

One data set deals with GRHL-3^−/− mice. The data set is classed as in vivo, mouse. The conditions noted are these: for Observed NTDs: GRHL-3^−/− embryos from GRHL-3^+/− intercrosses, given to pregnant females, embryos harvested E14.5; for Predicted NTDs: predicted from the response of ct/ct embryos; for Mean litter size / frequency of resorptions: mouse, in vivo. As for the experimental part: GRHL-3^+/− mice were inter-crossed and folate, inositol or PBS placebo was administered to pregnant females as previously described. Embryos were harvested on E14.5 and genotyped and examined morphologically. […] The results were analysed statistically by the one-sided binomial probability test. NTDs in the curly tail mice are resistant to folate administered in early gestation. […] The effects of folate and inositol administration on pregnant GRHL-3^+/− mice previously mated with GRHL-3^+/− males was examined (Table 6). As expected, no rescue of spina bifida in GRHL-3^−/− embryos with placebo or folate treatment was observed. […] Although the numbers of embryos examined was small, the result was highly significant (p<0.001) given the 70% reduction in the incidence of spina bifida in inositol-treated ct/ct embryos. These findings indicate that GRHL-3 expression is essential for inositol-mediated rescue of folate-resistant NTDs.

Data set [1] relates to five concatamerized GAL4 DNA binding sites upstream of the CAT gene in 293T cell line. In words: GAL4 DNA binding domain fusion / CAT reporter co-transfection. The data set is classed as cell-based. Conditions: fused to GAL4 DNA binding domain, human 293T cell line. From the text:
Although significant sequence homology exists between grh and the shorter mgr isoforms and p70 mgr, the isoleucine rich transcriptional activation domain identified in the fly protein is not conserved. […] In view of the high degree of conservation of the first three coding exons of p70 mgr and bom, it was postulated that this could be the functional domain responsible for activation. To address this, the cDNA fragment encoding the first 93 amino acids of human p70 MGR (encoded by the first three exons) was subcloned in frame with the GAL4 DNA binding domain in a mammalian expression vector. […] These plasmids were co-transfected into the human 293T cell line with a reporter plasmid containing five concatamerized GAL4 DNA binding sites upstream of the chloramphenicol acetyltransferase (CAT) gene. The vector containing only the GAL4 DNA-BD or containing the VP16 activation domain fused to the GAL DNA-BD served as the negative and positive controls, respectively.

The subject of data set [2] is human En-1 promoter. The experiment in a line: En-1 promoter / luciferase reporter transfection in COS cells. The class given is cell-based. Conditions: p70 MGR expression vector vs empty vector, MGR null cell line COS. From the text:
(§1) FIG. 3 are representations showing that p70 MGR binds to and transactivates the human En-1promoter. (A) Identifcation of a grh consensus DNA binding site in the human En-1promoter. The consensus sequence for grh DNA binding (SEQ ID NO: 50) compiled from an alignment of the Drosophila Ultrabithorax, Dopa decarboxylase and fushi tarazu promoters was compared with the sequence of the proximal human En-1 promoter (SEQ ID NO: 49) and the Drosophilaengrailed promoter (SEQ ID NO: 48). The closed bracket indicates the extend of the grainyhead binding site in the engrailed promoter as defined by DNAseI footprinting. (B) Human p70 MGR binds 5 to the human En-1 promoter. Nuclear extract from the JEG-3 cell line was studied in an EMSA with a Ddc promoter probe in the presence of pre-immune sera (lane 1), anti-MGR specific antisera (detailed in legend to FIG. 2) (lane 2) or cold competitor DNA (lanes 3-5). A 50-fold excess of the Ddc probe was used in lane 3 and a 10- and 20-fold excess of a human En-1promoter probe in lanes 4 and 5, respectively. The migration of the MGR/DNA complex is shown by arrows. (C) Human p70 MGR transactivates the En-1promoter. […]
In general terms: A reporter such as luciferase makes a cellular process visible.

The next data set deals with Drosophila PCNA promoter. In words: EMSA with JEG-3 nuclear extract, PCNA promoter probe. Conditions: anti-MGR antisera. The class given is binding. From the text:
(§2) FIG. 2 is a photographic representation showing that p70 MGR binds to Drosophila gene regulatory sequences which bind grh. (A) p70 MGR binds to the Drosophila PCNA promoter. Nuclear extract from the JEG-3 cell line was studied in an EMSA with a PCNA promoter probe in the presence and absence of anti-MGR specific antisera. Antisera 611 was raised against peptides common to the p70 and p49 MGR proteins in the dimerization domain and antisera 67 was raised against unique peptides in the NH2-terminal domain of p70 MGR. The migration of the MGR complex is shown in arrows. (B) p70 MGR binds to the Drosophila dopo decarboxylase promoter. Experimental conditions were as described for (A).
(§3) To determine the extent of the functional homology between GRH and MGR, it was initially examined whether the mammalian protein could bind to the well-characterized binding sites for the Drosophila factor in the Dopa decarboxylase and PCNA gene regulatory regions (Uv et al., Mol. Cell. Biol. 17: 6727-6735, 1997; Hayashi et al., J. Biol. Chem. 274: 35080-35088, 1999). Oligonucleotide probes encompassing these sites were incubated with nuclear extract from the human placental cell line JEG-3, which expresses both isoforms of MGR at RNA and protein level and analyzed in an electrophoretic mobility shift assay (EMSA). […]

Data set [3] relates to Drosophila dopa decarboxylase promoter. The experiment in a line: EMSA with JEG-3 nuclear extract, Dopa decarboxylase promoter probe. The class given is binding. Conditions: anti-MGR antisera.
Source text: as §2, §3
For orientation: Mobility shift assays separate free from complexed probe on a gel.

Data set [4] has as its system human En-1 promoter. In words: EMSA competition with JEG-3 nuclear extract, En-1 promoter probe. The data set is classed as binding. The conditions noted are these: cold En-1 probe competing with Ddc probe.
Source text: as §1

Another data set has as its system curly tail (ct/ct) mice. Conditions: cited from earlier work.

Marks after values point to notes of the source that are not given here.

Consider `Nc1nc2ncc(CNc3ccc(C(=O)N[C@@H](CCC(=O)O)C(=O)O)cc3)nc2c(=O)[nH]1` [Folate, folate], for which, in the data set with GRHL-3^−/− mice, the “Observed NTDs” value amounted to 100%, the Mean litter size result was “did not differ significantly” and the frequency of resorptions entry is on record as “did not differ significantly”. In addition, the “Predicted NTDs” value in the data set with GRHL-3^−/− mice (GRHL-3^−/− embryos) is 100%.

Consider VP16, for which the “transcriptional activation of the CAT gene” value (from here on “transcriptional activation”) in data set [1] is reported as “transcriptional activation of the CAT gene was observed”.

In the case of “p70 MGR: human mammalian Grainyhead isoform p70, SEQ ID NO:4; first 93 amino acids fused to GAL4 DNA binding domain in b240”, the “transcriptional activation” value in data set [1] is reported as “transcriptional activation of the CAT gene was observed”. Also, the “transcriptional activity of the En-1 promoter” value in the data set on human En-1 promoter [2] is on record as “dramatically enhanced”. Further, the “binding to PCNA promoter probe” value in the data set with Drosophila PCNA promoter is given as “binds”. For the same molecule, in data set [3], the “binding to dopa decarboxylase promoter probe” value is given as “binds”. Besides, the “binding to En-1 promoter” value in the data set with human En-1 promoter [4] is given as “binds”.

For `O[C@H]1[C@H](O)[C@@H](O)[C@H](O)[C@@H](O)[C@H]1O` [Inositol, inositol], in the data set with GRHL-3^−/− mice, the “Observed NTDs” value stood at 100%*, the Mean litter size entry is “did not differ significantly” and the frequency of resorptions result is recorded as “did not differ significantly”. Also, the “rescue of spina bifida (incidence, severity)” value in the data set with GRHL-3^−/− mice (GRHL-3^−/− embryos, treatment of pregnant GRHL-3^+/− mice) was “neither the incidence, nor severity of the spina bifida in the GRHL-3^−/− embryos was alleviated”. Also, the “Predicted NTDs” value with GRHL-3^−/− mice (GRHL-3^−/− embryos) is reported as 30%. Also, the “effect on NTDs / incidence of spina bifida” value with curly tail (ct/ct) mice (curly tail mice, administered in early gestation / pregnancy) was “marked reduction”. For the same molecule, the “reduction in the incidence of spina bifida” value with curly tail (ct/ct) mice (inositol-treated ct/ct embryos) is reported as 70%.

B1: bom: brother of mammalian grainyhead; region comparable to first 93 amino acids of p70 MGR fused to GAL4 DNA binding domain (protein)
chain: MSQESDNNKRLVALVPMPSDPPFNTRRAYTSEDEAWKSYLENPLTAATKAMMSINGDEDSAAALGLLYDYYKVPRDKRLLSVSKASDSQEDQEKRNCLGTSEAQSNLSGGENRVQVLKTVPVNLSLNQDHLENSKREQYSISFPESSAIIPVSGITVVKAEDFTPVFMAPPVHYPRGDGEEQRVVIFEQTQYDVPSLATHSAYLKDDQRSTPDSTYSESFKDAATEKFRSASVGAEEYMYDQTSSGTFQYTLEATKSLRQKQGEGPMTYLNKGQFYAITLSETGDNKCFRHPISKVRSVVMVVFSEDKNRDEQLKYWKYWHSRQHTAKQRVLDIADYKESFNTIGNIEEIAYNAVSFTWDVNEEAKIFITVNCLSTDFSSQKGVKGLPLMIQIDTYSYNNRSNKPIHRAYCQIKVFCDKGAERKIRDEERKQNRKKGKGQASQTQCNSSSDGKLAAIPLQKKSDITYFKTMPDLHSQPVLFIPDVHFANLQRTGQVYYNTDDEREGGSVLVKRMFRPMEEEFGPVPSKQMKEEGTKRVLLYVRKETDDVFDALMLKSPTVKGLMEAISEKYGLPVEKIAKLYKKSKKGILVNMDDNIIEHYSNEDTFILNMESMVEGFKVTLMEI
modifications: human
As to B1, in data set [1], the “transcriptional activation” value is on record as “transcriptional activation of the CAT gene was observed”.

B2: p49 mgr: human mammalian Grainyhead isoform p49, SEQ ID NO:2; full length fused to GAL4 DNA binding domain (protein)
chain: MASLWESPQQCIILSPLSGWWFSIGISILTSSALVLKPQMLKGELQTRPSQRPSRKAFRRNNFEYTLEASKSLRQKPGDSTMTYLNKGQFYPITLKEVSSSEGIHHPISKVRSVIMVVFAEDKSREDQLRHWKYWHSRQHTAKQRCIDIADYKESFNTISNIEEIAYNAISFTWDINDEAKVFISVNCLSTDFSSQKGVKGLPLNIQVDTYSYNNRSNKPVHRAYCQIKVFCDKGAERKIRDEERKQSKRKVSDVKVPLLPSHKRMDITVFKPFIDLDTQPVLFIPDVHFANLQRGTHVLPIASEELEGEGSVLKRGPYGTEDDFAVPPSTKLARIEEPKRVLLYVRKESEEVFDALMLKTPSLKGLMEAISDKYDVPHDKIGKIFKKCKKGILVNMDDNIVKHYSNEDT
modifications: GAL4 DNA-binding domain fusion; human
B2: in data set [1], the “transcriptional activation” value is on record as “No activation was observed”.
